Data set [1] concerns HIV-IIIb. The data set can be described thus: Test A: Antiviral Assay in MT4 Cells. In kind it is cell-based, HIV-1. The settings on record: Human immunodeficiency virus 1, IIIB, MT4, 120 h; for inhibition at 0.2 µM: read-out: % inhibition at 0.2 μM; for inhibition at 2 µM: read-out: % inhibition at 2 μM. As to the method:
Test A: Antiviral Assay in MT4 Cells
MT-4 cells were next mixed with HIV-IIIb at an m.o.i of 0.003 for 1 hour, after which time 35 μL of virus/cell mixture (2000 cells) was immediately added to each well containing 40 μL of diluted compound. The plates were then incubated at 37° C. for 5 days. […] Cell lysis was carried out by incubating at room temperature for 10 min and then chemiluminescence was read.

A short description of data set [2]: Test B: Cytotoxicity Assay. The settings on record: human, uninfected MT-4 cells, same protocol as Test A. In kind it is cell-based. An outline of the steps:
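Uninfected MT-4 cells (2000 per well) incubated with diluted compound at 37° C. for 5 days, following the antiviral protocol without HIV-IIIb.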

For `Cc1c(-c2ccc(C#CC(C)(C)O)nc2[C@H](Cc2cc(F)cc(F)c2)NC(=O)Cn2nc(C(F)(F)F)c3c2C(F)(F)[C@@H]2C[C@H]32)ccc2n[nH]c(=O)n12` [Compound 27G, 2-((3bS,4aR)-5,5-difluoro-3-(trifluoromethyl)-3b,4,4a,5-tetrahydro-1H-cyclopropa[3,4]cyclopenta[1,2-c]pyrazol-1-yl)-N—((S)-2-(3,5-difluorophenyl)-1-(6-(3-hydroxy-3-methylbut-1-yn-1-yl)-3-(5-methyl-3-oxo-2,3-dihydro-[1,2,4]triazolo[4,3-a]pyridin-6-yl)pyridin-2-yl)ethyl)acetamide], in data set [1], the inhibition (in general, the share of the control response that was lost under treatment) at 0.2 µM stood at 89% and the inhibition at 2 µM turned out to be 89%. For the same compound, the midpoint of cytotoxicity in data set [2], the CC50 at 5 days, lay at 10.4 µM.
As to `Cn1nc(NC(=O)NC2CC2)c2cccc(-c3ccc(C#CC(C)(C)O)nc3[C@H](Cc3cc(F)cc(F)c3)NC(=O)Cn3nc(C(F)(F)F)c4c3C(F)(F)[C@@H]3C[C@H]43)c21` [Compound 50, N—((S)-1-(3-(3-(3-cyclopropylureido)-1-methyl-1H-indazol-7-yl)-6-(3-hydroxy-3-methylbut-1-yn-1-yl)pyridin-2-yl)-2-(3,5-difluorophenyl)ethyl)-2-((3b-S,4aR)-5,5-difluoro-3-(trifluoromethyl)-3b,4,4a,5-tetrahydro-1H-cyclopropa[3,4]cyclopenta[1,2-c]pyrazol-1-yl)acetamide], in data set [1], the inhibition at 0.2 µM amounted to 95% and the inhibition at 2 µM amounted to 96%. In addition, half-maximal cytotoxicity in data set [2] (CC50 at 5 days) was put at 11.7 µM.
For `Cn1nc(NC(=O)CN2CCCC2)c2c(Cl)ccc(-c3ccc(C#CC(C)(C)O)nc3[C@H](Cc3cc(F)cc(F)c3)NC(=O)Cn3nc(C(F)F)c4c3C(F)(F)[C@@H]3C[C@H]43)c21` [Compound 100, N—((S)-1-(3-(4-chloro-1-methyl-3-(2-(pyrrolidin-1-yl)acetamido)-1H-indazol-7-yl)-6-(3-hydroxy-3-methylbut-1-yn-1-yl)pyridin-2-yl)-2-(3,5-difluorophenyl)ethyl)-2-((3b-S,4aR)-3-(difluoromethyl)-5,5-difluoro-3b,4,4a,5-tetrahydro-1H-cyclopropa[3,4]cyclopenta[1,2-c]pyrazol-1-yl)acetamide], in that order: 99%, 99% and 5.14 µM.
Turning to `Cn1nc(N)c2cccc(-c3ccc(C#CC(C)(C)O)nc3[C@H](Cc3cc(F)cc(F)c3)NC(=O)Cn3nc(C(F)F)c4c3C(F)(F)CCC4(F)F)c21` [Compound 31, (S)—N-(1-(3-(3-amino-1-methyl-1H-indazol-7-yl)-6-(3-hydroxy-3-methylbut-1-yn-1-yl)pyridin-2-yl)-2-(3,5-difluorophenyl)ethyl)-2-(3-(difluoromethyl)-4,4,7,7-tetrafluoro-4,5,6,7-tetrahydro-1H-indazol-1-yl)acetamide], in data set [1], the inhibition at 0.2 µM worked out at 89% and the inhibition at 2 µM came to 89%. Moreover, half-maximal cytotoxicity in data set [2] (CC50 at 5 days) was put at 8.03 µM.
With `Cn1cnc(-c2ccc(-c3ccc(Cl)c4c(NS(C)(=O)=O)nn(C)c34)c([C@H](Cc3cc(F)cc(F)c3)NC(=O)Cn3nc(C(F)(F)F)c4c3C(F)(F)[C@@H]3C[C@H]43)n2)c1` [Compound 179, N—((S)-1-(3-(4-chloro-1-methyl-3-(methylsulfonamido)-1H-indazol-7-yl)-6-(1-methyl-1H-imidazol-4-yl)pyridin-2-yl)-2-(3,5-difluorophenyl)ethyl)-2-((3b-S,4aR)-5,5-difluoro-3-(trifluoromethyl)-3b,4,4a,5-tetrahydro-1H-cyclopropa[3,4]cyclopenta[1,2-c]pyrazol-1-yl)acetamide], in data set [1], the inhibition at 0.2 µM was found to be 100% and the inhibition at 2 µM was determined as 100%. The midpoint of cytotoxicity in data set [2], the CC50 at 5 days, lay at 15.5 µM.

For the origin of these results see US20140303164A1, “THERAPEUTIC COMPOUNDS” (Gilead Sciences, Inc., priority 2013, published 2014).
